Measurements taken from BindingDB's records for doi:10.1016/j.bmc.2014.04.026 (Florida A&M University, 2014).

Target: D(3) dopamine receptor (Homo sapiens, UniProt P35462)
Experiment: Displacement of [3H]N-methylspiperone from human dopamine D3 receptor by PDSP assay

Chain of D(3) dopamine receptor (P35462 as listed by the source): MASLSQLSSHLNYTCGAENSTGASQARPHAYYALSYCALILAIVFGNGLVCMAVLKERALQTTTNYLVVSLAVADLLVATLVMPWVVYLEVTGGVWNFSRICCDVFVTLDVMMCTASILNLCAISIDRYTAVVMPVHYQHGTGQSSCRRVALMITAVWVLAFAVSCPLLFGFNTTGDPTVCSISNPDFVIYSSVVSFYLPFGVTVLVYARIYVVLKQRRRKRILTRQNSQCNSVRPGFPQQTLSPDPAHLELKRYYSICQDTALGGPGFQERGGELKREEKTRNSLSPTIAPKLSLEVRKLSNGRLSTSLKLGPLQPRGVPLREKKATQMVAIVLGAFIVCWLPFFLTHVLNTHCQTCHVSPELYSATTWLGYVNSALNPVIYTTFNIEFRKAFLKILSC

- Ki: 0.671 µM
SMILES: Clc1ccc(N2C[C@H]3C[C@@H]2CN3CCCc2cc3ccccc3o2)cc1
